From article PMC5573538, “Contrasting effects of phosphatidylinositol 4,5‐bisphosphate on cloned TMEM16A and TMEM16B channels” (British Journal of Pharmacology, 2017)

Tests used:
[1] = molecular target: T1, TMEM16B (Mus musculus, UniProt Q8CFW1); assay: inside-out patch clamp, excised patches from HEK-293T cells, +[…] mV, […] Ca2+ (partial current inhibition); type: biochemical; settings: read-out: K i
T1 construct: gene Ano2; mouse TMEM16B isoform A, expressed in HEK-293T cells
T1 sequence (Q8CFW1 1-1002): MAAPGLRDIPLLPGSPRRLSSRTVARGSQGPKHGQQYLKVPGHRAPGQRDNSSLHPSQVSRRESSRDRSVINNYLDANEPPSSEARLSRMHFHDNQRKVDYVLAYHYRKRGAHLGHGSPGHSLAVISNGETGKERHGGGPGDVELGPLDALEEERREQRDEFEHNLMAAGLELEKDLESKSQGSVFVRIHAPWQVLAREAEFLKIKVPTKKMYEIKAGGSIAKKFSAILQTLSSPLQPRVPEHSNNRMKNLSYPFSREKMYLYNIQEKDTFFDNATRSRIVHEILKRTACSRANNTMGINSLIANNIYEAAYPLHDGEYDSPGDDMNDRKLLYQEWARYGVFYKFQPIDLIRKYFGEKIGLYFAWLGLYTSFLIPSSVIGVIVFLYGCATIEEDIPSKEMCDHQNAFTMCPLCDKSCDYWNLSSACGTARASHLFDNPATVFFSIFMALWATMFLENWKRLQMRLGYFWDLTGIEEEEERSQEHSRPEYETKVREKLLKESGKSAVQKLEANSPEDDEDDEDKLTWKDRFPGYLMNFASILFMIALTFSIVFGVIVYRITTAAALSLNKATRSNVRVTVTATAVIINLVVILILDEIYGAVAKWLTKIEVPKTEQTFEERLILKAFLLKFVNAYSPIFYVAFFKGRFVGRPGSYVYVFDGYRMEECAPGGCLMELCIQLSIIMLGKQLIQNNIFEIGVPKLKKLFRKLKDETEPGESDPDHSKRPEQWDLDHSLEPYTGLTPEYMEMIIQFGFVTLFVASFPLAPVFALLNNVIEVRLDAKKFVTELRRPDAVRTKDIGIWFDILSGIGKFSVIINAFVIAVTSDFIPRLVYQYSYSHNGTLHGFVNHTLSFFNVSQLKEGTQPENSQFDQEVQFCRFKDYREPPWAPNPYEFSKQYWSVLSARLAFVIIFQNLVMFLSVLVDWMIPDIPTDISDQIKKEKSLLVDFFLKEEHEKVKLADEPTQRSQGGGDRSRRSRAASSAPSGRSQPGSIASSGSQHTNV

[2] = molecular target: T2, TMEM16A (Mus musculus, UniProt Q8BHY3); assay: inside-out patch clamp, excised patches from HEK-293T cells, +[…] mV, […] Ca2+ (current activation); type: biochemical; settings: read-out: K a
T2 construct: gene Ano1; mouse TMEM16A isoform (ac), expressed in HEK-293T cells
T2 sequence (Q8BHY3 1-960): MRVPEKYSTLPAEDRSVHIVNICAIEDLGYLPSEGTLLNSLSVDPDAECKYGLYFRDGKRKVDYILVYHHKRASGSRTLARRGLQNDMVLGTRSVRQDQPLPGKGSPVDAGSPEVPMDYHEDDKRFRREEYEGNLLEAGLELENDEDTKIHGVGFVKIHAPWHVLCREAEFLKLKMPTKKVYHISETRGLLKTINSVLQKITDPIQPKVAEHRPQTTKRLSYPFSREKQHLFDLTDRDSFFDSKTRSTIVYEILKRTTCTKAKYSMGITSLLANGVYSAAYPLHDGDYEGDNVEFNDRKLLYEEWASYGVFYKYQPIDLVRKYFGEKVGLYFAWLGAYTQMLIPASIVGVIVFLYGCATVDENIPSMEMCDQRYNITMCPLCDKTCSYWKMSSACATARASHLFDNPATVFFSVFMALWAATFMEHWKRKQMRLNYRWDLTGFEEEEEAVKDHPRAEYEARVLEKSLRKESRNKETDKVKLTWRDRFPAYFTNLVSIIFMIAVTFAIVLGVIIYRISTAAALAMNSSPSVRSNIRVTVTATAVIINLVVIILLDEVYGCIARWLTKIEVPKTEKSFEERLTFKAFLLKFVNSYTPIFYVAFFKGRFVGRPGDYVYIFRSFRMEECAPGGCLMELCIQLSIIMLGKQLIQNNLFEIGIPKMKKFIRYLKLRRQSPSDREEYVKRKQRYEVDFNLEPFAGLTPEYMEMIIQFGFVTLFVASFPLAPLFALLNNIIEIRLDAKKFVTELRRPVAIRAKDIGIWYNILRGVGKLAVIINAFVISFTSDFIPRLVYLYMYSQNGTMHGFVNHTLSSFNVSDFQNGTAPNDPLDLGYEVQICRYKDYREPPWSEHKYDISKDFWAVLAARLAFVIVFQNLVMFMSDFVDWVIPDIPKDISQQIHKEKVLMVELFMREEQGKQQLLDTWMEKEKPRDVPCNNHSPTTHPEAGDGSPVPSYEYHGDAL

`CCCCCCCC(=O)OC[C@H](COP(=O)(O)O[C@@H]1[C@H](O)[C@H](O)[C@@H](OP(=O)(O)O)[C@H](OP(=O)(O)O)[C@H]1O)OC(=O)CCCCCCC` [diC8‐PIP2] showed an IC50 [1] of 46 ± 2 µM and an EC50 [2] of 53 ± 9 µM.
